Results as given in EPA's CvTdb concentration-time database.

How the values were obtained:
Rat [1] = assay: concentration in plasma after dosing; conditions: dosed: Free Carbon disulfide, 50 mg/kg, iv, Male, F344
Rat [2] = assay: concentration in plasma after dosing; conditions: dosed: Free Carbon disulfide, 10 mg/kg, iv, Male, F344
Rat [3] = assay: concentration in plasma after dosing; conditions: dosed: Free Carbon disulfide, 50 mg/kg, iv, Male, F344; remark: listed apart in the source
Rat [4] = assay: concentration in plasma after dosing; conditions: dosed: Free Carbon disulfide, 10 mg/kg, iv, Male, F344; remark: listed apart in the source
Rat [5] = assay: concentration in plasma after dosing
Rat [6] = assay: concentration in urine after dosing; conditions: dosed: dibromoacetic acid, 40 mg/kg, oral, Male, F344
Rat [7] = assay: concentration in urine after dosing; conditions: dosed: dibromoacetic acid, 100 mg/kg, oral, Male, F344
Rat [8] = assay: concentration in urine after dosing; conditions: dosed: dibromoacetic acid, 100 mg/kg, oral, Male, F344; remark: listed apart in the source
Rat [9] = assay: concentration in urine after dosing; conditions: dosed: dibromoacetic acid, oral, Male, F344
Rat [10] = assay: concentration in urine after dosing; conditions: dosed: dibromoacetic acid, 40 mg/kg, oral, Male, F344; remark: listed apart in the source
rat [11] = assay: concentration in blood after dosing; conditions: dosed: benzene, 40000 ppm, dermal, duration: 4 hr, male, F344
rat [12] = assay: concentration in blood after dosing; conditions: dosed: benzene, 40000 ppm, dermal, duration: 4 hr, male, F344; remark: listed apart in the source
rat [13] = assay: concentration in adipose after dosing; conditions: dosed: benzene, 190 ppm, inhalation, duration: 6 hr, male, Fisher
rat [14] = assay: concentration in blood after dosing; conditions: dosed: benzene, 40000 ppm, dermal, duration: 4 hr, male, F344; remark: listed apart in the source
rat [15] = assay: concentration in blood after dosing; conditions: dosed: benzene, 40000 ppm, dermal, duration: 4 hr, male, F344; remark: listed apart in the source
rat [16] = assay: concentration in blood after dosing; conditions: dosed: benzene, 40000 ppm, dermal, duration: 4 hr, male, F344; remark: listed apart in the source
Rat [17] = assay: concentration in plasma after dosing; conditions: dosed: 1-Chloro-2-propanol, 15 mg/kg, oral, Male, F344
Rat [18] = assay: concentration in plasma after dosing; conditions: dosed: 1-Chloro-2-propanol, 15 mg/kg, oral, Female, Harlan Sprague-Dawley
Rat [19] = assay: concentration in plasma after dosing; conditions: dosed: 1-Chloro-2-propanol, 7.5 mg/kg, oral, Male, F344
Rat [20] = assay: concentration in plasma after dosing; conditions: dosed: 1-Chloro-2-propanol, 15 mg/kg, oral, Female, F344
Rat [21] = assay: concentration in plasma after dosing; conditions: dosed: 1-Chloro-2-propanol, 7.5 mg/kg, oral, Female, F344
Rat [22] = assay: concentration in plasma after dosing; conditions: dosed: 1-Chloro-2-propanol, 7.5 mg/kg, oral, Female, F344; remark: listed apart in the source
Rat [23] = assay: concentration in plasma after dosing; conditions: 40 min; dosed: 1-Chloro-2-propanol; 7.5 mg/kg; oral; Male; F344
Rat [24] = assay: concentration in plasma after dosing; conditions: dosed: 1-Chloro-2-propanol, 15 mg/kg, oral, Male, F344; remark: listed apart in the source
Rat [25] = assay: concentration in plasma after dosing; conditions: 0.5 h; dosed: 1-Chloro-2-propanol; 7.5 mg/kg; oral; Female; F344
Rat [26] = assay: concentration in plasma after dosing; conditions: 40 min; dosed: 1-Chloro-2-propanol; 15 mg/kg; oral; Male; F344
Rat [27] = assay: concentration in plasma after dosing; conditions: dosed: 1-Chloro-2-propanol, 7.5 mg/kg, oral, Male, F344; remark: listed apart in the source
Rat [28] = assay: concentration in plasma after dosing; conditions: dosed: 1-Chloro-2-propanol, 15 mg/kg, oral, Male, F344; remark: listed apart in the source
Rat [29] = assay: concentration in plasma after dosing; conditions: dosed: 1-Chloro-2-propanol, 15 mg/kg, oral, Female, Harlan Sprague-Dawley; remark: listed apart in the source
Rat [30] = assay: concentration in plasma after dosing; conditions: dosed: 1-Chloro-2-propanol, 7.5 mg/kg, oral, Male, F344; remark: listed apart in the source
Rat [31] = assay: concentration in plasma after dosing; conditions: dosed: 1-Chloro-2-propanol, 7.5 mg/kg, oral, Female, F344; remark: listed apart in the source
Rat [32] = assay: concentration in plasma after dosing; conditions: dosed: 1-Chloro-2-propanol, 15 mg/kg, oral, Female, F344; remark: listed apart in the source
Rat [33] = assay: concentration in plasma after dosing; conditions: dosed: 1-Chloro-2-propanol, 7.5 mg/kg, oral, Male, F344; remark: listed apart in the source
Rat [34] = assay: concentration in plasma after dosing; conditions: dosed: 1-Chloro-2-propanol, 7.5 mg/kg, oral, Male, F344; remark: listed apart in the source
Rat [35] = assay: concentration in plasma after dosing; conditions: dosed: 1-Chloro-2-propanol, 15 mg/kg, oral, Female, F344; remark: listed apart in the source
Rat [36] = assay: concentration in plasma after dosing; conditions: dosed: 1-Chloro-2-propanol, 15 mg/kg, oral, Female, Harlan Sprague-Dawley; remark: listed apart in the source
Rat [37] = assay: concentration in plasma after dosing; conditions: 20 min; dosed: 1-Chloro-2-propanol; 7.5 mg/kg; oral; Female; F344
Rat [38] = assay: concentration in plasma after dosing; conditions: 0.5 h; dosed: 1-Chloro-2-propanol; 7.5 mg/kg; oral; Female; F344; remark: listed apart in the source
Rat [39] = assay: concentration in plasma after dosing; conditions: dosed: 1-Chloro-2-propanol, 7.5 mg/kg, oral, Female, F344; remark: listed apart in the source
Rat [40] = assay: concentration in plasma after dosing; conditions: dosed: 1-Chloro-2-propanol, 7.5 mg/kg, oral, Male, F344; remark: listed apart in the source
Rat [41] = assay: concentration in plasma after dosing; conditions: 10 min; dosed: 1-Chloro-2-propanol; 7.5 mg/kg; oral; Female; F344
Rat [42] = assay: concentration in plasma after dosing; conditions: dosed: 1-Chloro-2-propanol, 15 mg/kg, oral, Male, F344; remark: listed apart in the source
Rat [43] = assay: concentration in plasma after dosing; conditions: dosed: 1-Chloro-2-propanol, 7.5 mg/kg, oral, Male, F344; remark: listed apart in the source
Rat [44] = assay: concentration in plasma after dosing; conditions: dosed: 1-Chloro-2-propanol, 15 mg/kg, oral, Female, F344; remark: listed apart in the source
Rat [45] = assay: concentration in plasma after dosing; conditions: dosed: 1-Chloro-2-propanol, 15 mg/kg, oral, Female, Harlan Sprague-Dawley; remark: listed apart in the source

S=C=S [Free Carbon disulfide]
concentration in plasma [µg/g]
Conditions	0.05 h	1 h	5 min	10 min	20 min	40 min
Rat [1]	21.2	1.2	11	6.6	4.9	1.8
Rat [2]	4.2	–	2.5	1.4	0.7	–
Rat [3]	20.2	2	15.9	9.5	5.6	2.6
Rat [4]	5.8	–	7.9	1.4	–	–

concentration in plasma [µg/g], Rat [5], dosed: Free Carbon disulfide, iv, Male, F344
Conditions	0.05 h	1 h	2 h	5 min	10 min	20 min	40 min
10 mg/kg	5	–	–	1.9	1.2	0.8	–
50 mg/kg	13.1	1.6	0.9	8.3	6.4	6.8	4.2

O=CC(=O)O [Glyoxylic acid]
concentration in urine [µg/mL]
Conditions	0 h	2 h	4 h	8 h	24 h	48 h
Rat [6]	18.4	11.9	–	–	35.6	37.9
Rat [7]	16.1	–	25.1	–	30.9	34.3
Rat [8]	27.4	20.7	28.6	31.2	28.8	47.9
Rat [10]	22.3	–	–	20.7	36.1	34.3

concentration in urine [µg/mL], Rat [9]
Conditions	0 h	4 h	8 h	24 h	48 h
40 mg/kg	29.8	13.2	27	31.8	26.3
100 mg/kg	20.5	25.6	–	30.4	54.8

c1ccccc1 [benzene]
Conditions	concentration in adipose [µg/mL]	concentration in blood [µg/mL]
rat [11], 0.5 h	–	8.34
rat [11], 1 h	–	10.3
rat [11], 2 h	–	13.1
rat [11], 3 h	–	12.3
rat [11], 4 h	–	11.5
rat [12], 0.5 h	–	7.67
rat [12], 1 h	–	8.22
rat [12], 2 h	–	9.71
rat [12], 3 h	–	10.6
rat [12], 4 h	–	11.1
rat [13], 0.4898 h	7.58	–
rat [13], 0.99 h	19.5	–
rat [13], 1.49 h	27.5	–
rat [13], 1.989 h	34.6	–
rat [13], 3.993 h	106	–
rat [13], 5.974 h	159	–
rat [13], 6.485 h	181	–
rat [13], 6.98 h	142	–
rat [13], 7.478 h	126	–
rat [13], 8.014 h	95.9	–
rat [13], 8.509 h	63.8	–
rat [13], 8.999 h	70.4	–
rat [13], 10 h	41.5	–
rat [13], 11.99 h	13.4	–
rat [13], 15 h	8.14	–
rat [14], 0.5 h	–	10
rat [14], 1 h	–	9.65
rat [14], 2 h	–	9.69
rat [14], 3 h	–	12.3
rat [14], 4 h	–	10.2
rat [15], 0.5 h	–	7.85
rat [15], 1 h	–	8.9
rat [15], 2 h	–	10.1
rat [15], 3 h	–	10.7
rat [15], 4 h	–	11.4
rat [16], 0.5 h	–	7.38
rat [16], 1 h	–	8.53
rat [16], 2 h	–	8.05
rat [16], 3 h	–	10.4
rat [16], 4 h	–	11.7

CC(O)CCl (stereo not given) [1-Chloro-2-propanol]
Conditions	concentration in plasma [µg/mL]
Rat [17], 2 h	0.131
Rat [17], 10 min	6.07
Rat [18], 1.5 h	0.78
Rat [18], 20 min	4.59
Rat [19], 0.5 h	1.04
Rat [19], 2 h	0.075
Rat [20], 2 h	0.112
Rat [20], 10 min	4.73
Rat [21], 5 min	1.17
Rat [21], 40 min	0.213
Rat [22], 5 min	2.36
Rat [22], 40 min	0.72
Rat [24], 2 h	0.203
Rat [24], 10 min	6.46
Rat [27], 1 h	0.195
Rat [27], 10 min	1.4
Rat [28], 1 h	0.94
Rat [28], 5 min	6.12
Rat [29], 0.5 h	4.68
Rat [29], 2.5 h	0.071
Rat [30], 1.5 h	0.144
Rat [30], 20 min	0.96
Rat [31], 1.5 h	0.081
Rat [31], 20 min	0.74
Rat [32], 2 h	0.072
Rat [32], 10 min	6.2
Rat [33], 1 h	0.393
Rat [33], 10 min	0.9
Rat [34], 0.5 h	1.36
Rat [34], 2 h	0.056
Rat [35], 1 h	0.897
Rat [35], 5 min	4.66
Rat [36], 0.5 h	3.97
Rat [36], 2.5 h	0.079
Rat [39], 1 h	0.133
Rat [39], 10 min	1.26
Rat [40], 1.5 h	0.108
Rat [40], 20 min	1.27
Rat [42], 1 h	1.02
Rat [42], 5 min	3.02
Rat [43], 5 min	1.6
Rat [43], 40 min	0.75
Rat [44], 1 h	0.63
Rat [44], 5 min	6.88
Rat [45], 1.5 h	0.354
Rat [45], 20 min	6.3

Conditions	concentration in plasma [µg/mL]
Rat [23]	0.81
Rat [25]	0.74
Rat [26]	2.74
Rat [37]	0.83
Rat [38]	0.73
Rat [41]	1.45

concentration in plasma [µg/mL], Rat [5], dosed: 1-Chloro-2-propanol, oral
Conditions	0.5 h	1 h	1.5 h	2 h	2.5 h	3 h	5 min	10 min	20 min	40 min
7.5 mg/kg, Female, F344	0.479	0.138	–	–	–	–	1.92	1.89	1.66	0.534
7.5 mg/kg, Male, F344	0.74	0.334	0.117	0.07	–	–	1.66	1.83	1.03	0.638
15 mg/kg, Female, F344	–	0.677	–	0.127	–	–	3.36	3.86	3.18	–
15 mg/kg, Female, Harlan Sprague-Dawley	3.27	–	0.768	–	0.069	0.059	–	–	3.02	4.11
15 mg/kg, Male, F344	–	0.92	–	0.159	–	0.107	1.7	5.37	–	3.3
